Test results as given in patent US12692288B2, “Crystalline and liquid crystalline 25-hydroxy-cholest-5-en-3-sulfate sodium and methods for preparing same” (Medicis Pharmaceutical Corporation, priority 2019, dated 2026).
Each block holds one compound with its values, some of them ahead of it.

Assays:
Type in all cases: physicochemical
[1] = Dynamic vapor sorption/desorption (DVS), VTI SGA-100; conditions: for form of material recovered after DVS, by XRPD: after sorption/desorption 5% to 95% RH
Method: Moisture sorption/desorption data were collected on a VTI SGA-100 Vapor Sorption Analyzer. NaCl and PVP were used as calibration standards. Samples were not dried prior to analysis. […] The equilibrium criterion used for analysis was less than 0.0100% weight change in 5 minutes with a maximum equilibration time of 3 hours. Data were not corrected for the initial moisture content of the samples.

[2] = Dynamic Vapor Sorption test (SMS DVS Intrinsic), Example 23; conditions: 25° C.
Method: Dynamic Vapor Sorption (DVS) was measured using an SMS (Surface Measurement Systems) DVS Intrinsic. [table]

[3] = Water activity slurries in aqueous solvent mixtures, solid phase by XRPD
Source text: The effect of water activity (aw) on the hydration state can be investigated through competitive water activity trituration experiments (slurries) in various aqueous solvent mixtures. The resulting solid phase can be characterized by x-ray powder diffraction. The experiments can establish the physically stable form at various aw. Water activity can also be related to relative humidity in that RH %=aw×100. Therefore, it is possible to directly relate the stability of an anhydrous/hydrate system in slurry experiments to solid-state stability. The slurry technique at controlled water activities can provide an accurate method of rapidly predicting the physically stable form in anhydrous/hydrate systems. […] The times, temperatures, and humidity are approximate. As with Table 1, the term “B” means birefringent when viewed by polarized light microscopy with cross polars.
Solutions were prepared by adding enough solids to a given solvent so that excess solids were present. The mixture was then agitated in a sealed vial at either ambient or elevated temperature. After a given amount of time, the solids were isolated for analysis.

[4] = Physical stability of forms on exposure to humidity, temperature or vacuum, by XRPD
Source text: X-ray powder diffraction patterns were collected with a PANalytical X'Pert PRO MPD or PANalytical Empyrean diffractometer using an incident beam of Cu radiation produced using a long, fine-focus source. An elliptically graded multilayer mirror was used to focus Cu Kα x-rays through the specimen and onto the detector. […] A specimen of the sample was sandwiched between 3-μm-thick films and analyzed in transmission geometry. A beam-stop, short anti-scatter extension, and anti-scatter knife edge were used to minimize the background generated by air. Soller slits for the incident and diffracted beams were used to minimize broadening and asymmetry from axial divergence. Diffraction patterns were collected using a scanning position-sensitive detector (X'Celerator) located 240 mm from the specimen and Data Collector software v. 2.2b or 5.5. All images were produced with the instrument labeled as X'Pert PRO MPD regardless of the instrument used.
X-ray powder diffraction patterns were collected with a PANalytical X'Pert PRO MPD diffractometer using an incident beam of Cu Kα radiation produced using a long, fine-focus source and a nickel filter. The diffractometer was configured using the symmetric Bragg—Brentano geometry. […] A specimen of the sample was packed in a well. Anti-scatter slits were used to minimize the background generated by air. Soller slits for the incident and diffracted beams were used to minimize broadening from axial divergence. Diffraction patterns were collected using a scanning position-sensitive detector (X'Celerator) located 240 mm from the sample and Data Collector software v. 2.2b.

[5] = Variable humidity XRPD (VH-XRPD); conditions: for time to complete dehydration/conversion to Form XIII: exposure to 0% RH
Source text: (§1) X-ray powder diffraction patterns were collected with a PANalytical X'Pert PRO MPD diffractometer using an incident beam of Cu Kα radiation produced using a long, fine-focus source and a nickel filter. The diffractometer was configured using the symmetric Bragg—Brentano geometry. Data were collected and analyzed using Data Collector software v. 2.2b. […] A specimen of the sample was packed in a nickel-coated copper well. Antiscatter slits were used to minimize the background generated by air. Soller slits for the incident and diffracted beams were used to minimize broadening from axial divergence. Diffraction patterns were collected using a scanning position-sensitive detector (X'Celerator) located 240 mm from the sample and Data Collector software v. 2.2b.
An Anton Paar temperature-humidity chamber (THC) was used to collect in-situ x-ray powder diffraction patterns as a function of humidity. The temperature of the specimen was controlled with a Peltier thermoelectric device located directly under the specimen holder and monitored with a platinum-100 resistance sensor located in the specimen holder. The thermoelectric device was powered and controlled by an Anton Paar TCU 50 interfaced with Data Collector software.
The humidity was generated with an RH-200 manufactured by VTI Inc. and carried by a flow of nitrogen gas. The humidity and temperature were monitored by a Rotronic HygroClip sensor located next to the specimen inside the THC.

[6] = Variable temperature XRPD (VT-XRPD)
Source text: as §1, with “air scattering.” for “air.”, “sample.” for “sample and Data Collector software v. 2.2b.”
An Anton Paar TTK 450 stage was used to collect in-situ x-ray powder diffraction patterns as a function of temperature. The sample was heated with a resistance heater located directly under the sample holder, and the temperature was monitored with a platinum-100 resistance sensor located in the specimen holder. The heater was powered and controlled by an Anton Paar TCU 100 interfaced with Data Collector software.

[7] = from 5 to 25% RH, screening material, mixture of Form I and Form II
[8] = from 25 to 85% RH, screening material, mixture of Form I and Form II

water corresponding to weight gain (DVS) [1, 7]: 1.5 mol/mol water | weight gain (DVS) [1, 7]: approximately 5 wt % | water corresponding to weight gain (DVS) [1, 8]: 1.8 mol/mol water | weight gain (DVS) [1, 8]: ~6 wt % | weight gain (DVS) ([1]; from 85 to 95% RH): ~6 wt % | hygroscopicity (DVS isotherm) ([1]; screening material, mixture of Form I and Form II): hygroscopic | hygroscopicity (DVS test) [2]: hygroscopic | moisture reversibly absorbed ([2]; below 30% RH): 7.0% | water absorbed ([2]; by 95% RH): 8.5% | Result (form) of water activity slurry ([3]; 0.73 aw, 94:06 ACN/H2O, 8 days, approximately room temperature): I + | Result (form) of water activity slurry ([3]; combination of samples from 0.5 aw and 0.38 aw, 56 days, filtered and dried under N2 for 30 min.): I + | form after heat exposure, by XRPD ([4]; briefly exposed to 130° C., screening material, mixture of Form I and Form II): mixture of Forms I, II, and XIII
SMILES: C[C@H](CCCC(C)(C)O)[C@H]1CCC2C3CC=C4C[C@@H](OS(=O)(=O)[O-])CC[C@]4(C)C3CC[C@@]21C.[Na+] (stereo partly drawn) [25HC3S sodium, Sodium [(3S,10R,13R,17R)-17-[(1R)-5-hydroxy-1,5-dimethyl-hexyl]-10,13-dimethyl-2,3,4,7,8,9,11,12,14,15,16,17-dodecahydro-1H-cyclopenta[a]phenanthren-3-yl] sulfate]
form of material recovered after DVS, by XRPD [1]: predominantly Form I with an additional peak near 8.8° | form after humidity exposure, by XRPD ([4]; 75% RH for 10 days, screening material, mixture of Form I and Form II): predominately Form I and two additional peaks near 4.4°2θ and 8.8°2θ

SMILES: C[C@H](CCCC(C)(C)O)[C@H]1CC[C@H]2[C@@H]3CC=C4C[C@@H](OS(=O)(=O)[O-])CC[C@]4(C)[C@H]3CC[C@]12C.[Na+] [Form I, 25HC3S sodium]
water activity above which Form I is believed to form liquid crystal Form V [3]: above 0.73 aw | behaviour upon exposure to 0% RH ([5]; 0% RH): dehydrate within minutes to Form XIII | time to complete dehydration/conversion to Form XIII [5]: 20 min | temperature by which decomposition product trisodium hydrogen disulfate, Na3H(SO4)2, was evident [6]: ≤ 170 °C | form shown after dehydration by heating ([6]; heating to 170° C. and then dropping to 135° C.): Form XIII | hygroscopicity [4]: hygroscopic | form change on drying ([4]; exposure to either 0% RH or 70° C. under vacuum): dehydrated Form I to Form XIII

SMILES: C[C@H](CCCC(C)(C)O)[C@H]1CC[C@H]2[C@@H]3CC=C4C[C@@H](OS(=O)(=O)[O-])CC[C@]4(C)[C@H]3CC[C@]12C.[Na+] [Form II, 25HC3S sodium]
water accommodated in fully hydrated state ([1]; DVS sorption isotherm at 85% RH (FIG. 16)): approximately 3 mol/mol of water | form of material recovered after DVS, by XRPD [1]: mixture of Form II and Form V | water corresponding to weight gain (DVS) ([1]; from 5 to 55% RH): 1 mol/mol water | weight gain (DVS) ([1]; from 5 to 55% RH): approximately 3.5 wt % | water corresponding to weight gain (DVS) ([1]; from 55 to 85% RH): 2 mol/mol water | weight gain (DVS) ([1]; from 55 to 85% RH): ~7 wt % | weight gain (DVS) ([1]; from 85 to 95% RH): ~7 wt % | form change in variable humidity XRPD ([5]; ambient temperature, 0% to 85% RH): a form change did not occur | form observed by XRPD at elevated temperature ([6]; 135° C.): still observed | relative humidity of exposure at which the form converts to Form V [4]: ≥ 75 % RH | time to conversion to Form V ([4]; exposure to 75% RH): up to 35 days | form stability by XRPD ([4]; stored at 0% RH for up to 35 days): remained unchanged | form stability by XRPD ([4]; under dry nitrogen for up to 4 days): remained unchanged

SMILES: C[C@H](CCCC(C)(C)O)[C@H]1CC[C@H]2[C@@H]3CC=C4C[C@@H](OS(=O)(=O)[O-])CC[C@]4(C)[C@H]3CC[C@]12C.[Na+] [Form III, 25HC3S sodium]
form change on heating ([4]; 58° C. and vacuum overnight, or 130° C.): desolvates to another anhydrous form, Form IX | form change at ambient conditions [4]: desolvates to Form II

SMILES: C[C@H](CCCC(C)(C)O)[C@H]1CC[C@H]2[C@@H]3CC=C4C[C@@H](OS(=O)(=O)[O-])CC[C@]4(C)[C@H]3CC[C@]12C.[Na+] [Form V, 25HC3S sodium]
water activity of aqueous solvent mixture slurries from which the form resulted [3]: above 0.73 aw | physical stability by XRPD ([4]; exposure to 55° C. and vacuum for 1 day): remained Form V | physical stability by XRPD ([4]; storage at ambient conditions for 25 days): no changes observed

SMILES: C[C@H](CCCC(C)(C)O)[C@H]1CC[C@H]2[C@@H]3CC=C4C[C@@H](OS(=O)(=O)[O-])CC[C@]4(C)[C@H]3CC[C@]12C.[Na+] [Form XIII, 25HC3S sodium]
relative humidity before which Form XIII hydrates to Form I ([5]; increasing humidity): < 25 % RH | form change at ambient conditions [4]: quickly hydrates to Form I

SMILES: C[C@H](CCCC(C)(C)O)[C@H]1CC[C@H]2[C@@H]3CC=C4C[C@@H](OS(=O)(=O)[O-])CC[C@]4(C)[C@H]3CC[C@]12C.[Na+] [Forms I+XIII, 25HC3S sodium]
time to complete dehydration/conversion to Form XIII [5]: ≤ 20 min | form change on exposure to humidity ([5]; isolated at 15% RH, exposed to 25% RH, held minimum one hour): converted to Form I
